# Marks after values point to notes of the source that are not given here.
# Columns and labels:
# [1] = system: New Zealand White rabbits; assay: Chemical analysis of blood of cholesterol-fed rabbits (Experimental Example 7, Step 3); conditions: 8 weeks
# Experimental: Healthy male New Zealand White rabbits, each weighing about 2.0 to 2.3 kg, were supplied from Yeonam Horticulture and Animal Husbandry College (Korea) and raised under a breeding environment of temperature 20±2° C., relative humidity 55±10%, and photoperiod 12L/12D. […] The rabbits were fed for 8 weeks while being allowed free access to the diets and water.
# Sprague-Dawley rats = assay: Effect on hyperlipemia in rats fed high-cholesterol diet (Experimental Example 6); format: in vivo, rat; conditions: rats on 1% cholesterol diet, 6 weeks; for Atherogenic index (AI): (total cholesterol − HDL cholesterol)/HDL cholesterol; for HDL-cholesterol / Neutral fat / Total cholesterol: 0.02% lovastatin, 0.039% BN30063, 0.040% BN30064, 0.041% BN30067 in diet; for HDL-cholesterol / Neutral fat / Total cholesterol / HDL-cholesterol/total cholesterol: average
# Excerpt: 50 of 4-week-old male white Sprague-Dawley rats (Bio Genomics Inc., Korea), each weighing about 90 to 110 g, were divided into five groups by a randomized block design. The rats of the five groups were fed with five different high-cholesterol diets, i.e., AIN-76 laboratory animal diets (TEKLAD premier Co., Madison, Wis., U.S.A.) containing 1% cholesterol (Control group), 1% cholesterol plus 0.02% lovastatin (Choongwae Pharma. Corp., Korea), 1% cholesterol plus 0.039% BN30063, 1% cholesterol plus 0.040% BN30064, and 1% cholesterol plus 0.041% BN30067, respectively, as shown in Table VII.
# The animals were allowed free access to the specified diets and water for 6 weeks and the ingestion amounts were recorded daily. The rats were weighed every 7 days, and then the record was analyzed.
# Blood samples were taken from vena hypogastrica of the rats of the five dietary groups raised for six weeks in Step 1. The blood was allowed to stand for 2 hours and centrifuged at 3,000 rpm for 15 minutes and the supernatant containing serum was separated and stored in a deep freezer before use. The total cholesterol level was measured using a diagnosis kit purchased from Sigma, Cat. No.: C0534, applying the method of Allain et al. (Allain et al., Clin. Chem., 20, 470-475 (1974)). The HDL fraction was separated using a kit purchased from Sigma, Cat. No.: 352-1 applying the heparin-manganese precipitation method (Waenic R. G. and Albers J. J., J Lipid Res., 19, 65-76 (1978)) and the HDL-cholesterol level was measured using a kit purchased from Sigma, Cat. No.: C9908. The neutral fat level was measured using a kit purchased from Sigma, Cat. No.: 336-10) applying the lipase-glycerol phosphate oxidase method (McGowan, M. W. et al., Clin. Chem., 29, 538-542(1983)).
# [2] = system: New Zealand White rabbits; assay: Fatty streak in the main artery of cholesterol-fed rabbits (Experimental Example 7, Step 2); format: in vivo, rabbit; conditions: 8 weeks; for Proportion of stained region (fatty streak region) per unit area of the artery: 1% cholesterol + RC4 diet, lovastatin 0.003 wt %, BN compounds 0.025 wt %, average ± standard deviation; for Proportion of the fatty streak region compared to the control group: 1% cholesterol diet
# Experimental: The rabbits raised in Step 1 were sacrificed and their chests were incised. The incision was performed downward to the diaphragm along the aortic arch and the fat surrounding the main artery was removed. The main artery was incised in the middle along the longitudinal axis from the second aortic intercostal artery anastomoses to the seventh aortic intercostal artery anastomoses and fixed with 10% neutral buffered formalin for 24 hours. Then, the incised main artery was pinned to a dish for staining of fatty streaks according to the method of Esper, E., et al. {J. Lab. Clin. Med., 121, 103-110 (1993)}. The artery was washed with propylene glycol three times for 2 minutes respectively. The artery was stained for 30 minutes with a saturated solution of Oil Red O (ORO, Sigma Co.) dissolved in propylene glycol. Thereafter, the artery was washed with 85% propylene glycol twice for 3 minutes respectively to remove the remaining staining solution and, then the artery was washed with physiological saline once. The artery was photographed and the photograph was traced. The proportion (%) of stained region (fatty streak region) per unit area of the artery was determined with an image analyzer (LEICA, Q-600, Germany). The significant differences between the test groups were tested by student t-test using Microsoft excel (version 7.0) program
# [3] = system: New Zealand White rabbits; assay: Morphological observation of liver tissue of cholesterol-fed rabbits (Experimental Example 7, Step 4)
# Experimental: Healthy male New Zealand White rabbits, each weighing about 2.0 to 2.3 kg, were supplied from Yeonam Horticulture and Animal Husbandry College (Korea) and raised under a breeding environment of temperature 20±2° C., relative humidity 55±10%, and photoperiod 12L/12D. The rabbits were divided into 5 groups, which were fed with 5 different diets, i.e., the control group fed with RC4 diet (Oriental Yeast Co., Japan) comprising moisture (7.6%), crude protein (22.8%), crude fat (2.8%), crude ash (8.8%), crude cellulose (14.4%) and soluble nitrogen-free substances (43.7%) plus cholesterol (1%) and four treatment groups further fed with lovastatin or BN30063, BN30064, BN30067 in addition to the feed of the control group. The rabbits were fed for 8 weeks while being allowed free access to the diets and water.
# Proportions of cells in the liver acinus containing excessive fat or modified to have irregular arrangement due to a high cholesterol diet were classified into four grades, from 1+ to 4+.
# [4] = system: New Zealand White rabbits; assay: Histological observation of the organs of treated rabbits (Experimental Example 7, Step 5); format: in vivo, rabbit; conditions: 8 weeks
# Excerpt: Tissues of the lung, myocardium, kidney and muscle taken from the rabbits treated with the phenolic acid derivatives (BN30063, BN30064, BN30067) were visually examined for pathological changes using a microscope.
# [5] = 1% cholesterol diet, lovastatin 1 mg/kg, BN compounds 0.025%, average ± standard deviation
Compound,"HDL [1, 5] [mg/dL]","TC [1, 5]",Atherogenic index (AI) (Sprague-Dawley rats),Increase of HDL-cholesterol to total cholesterol as compared to the control group (Sprague-Dawley rats) [%],Reduction of atherogenic index as compared to the control group (Sprague-Dawley rats) [%],Reduction of neutral fat level as compared to the control group (Sprague-Dawley rats) [%],Reduction of total plasma cholesterol level as compared to the control group (Sprague-Dawley rats) [%],HDL-cholesterol (Sprague-Dawley rats) [mg/dL],Neutral fat (Sprague-Dawley rats) [mg/dL],Total cholesterol (Sprague-Dawley rats) [mg/dL],HDL-cholesterol/total cholesterol (Sprague-Dawley rats) [%],Proportion of stained region (fatty streak region) per unit area of the artery [2],Proportion of the fatty streak region compared to the control group [2],"Pathological changes in lung, myocardium, kidney and muscle (microscope) [4]","Grade of abnormal fat content in the liver acinus ([3]; rabbit, in vivo)","Liver tissue morphology ([3]; rabbit, in vivo)",further results
"CC[C@H](C)C(=O)O[C@H]1C[C@@H](C)C=C2C=C[C@H](C)[C@H](CC[C@@H]3C[C@@H](O)CC(=O)O3)[C@H]21 [Lovastatin, reference compound]",70 ± 6,1739 ± 86 mg/dL,2.58,20,21.58,18.92,10,24.83,83.85,86.51,29.13,30.3 ± 12^b %,significantly lower,,,,"GOT [1, 5]: 105 ± 47^b IU/L; GPT [1, 5]: 47 ± 18 IU/L; GOT and GPT compared among the test groups ([1]; associated with hepatotoxicosis): highest GOT and GPT values among the test groups; Grade of abnormal fat content in the liver acinus ([3]; 1+ (0–25%), 2+ (26–50%), 3+ (51–75), 4+ (76–100%), rabbits, 1% cholesterol diet, 8 weeks, average ± standard deviation): 3.83 ± 0.5^b; Liver tissue morphology ([3]; rabbits, 1% cholesterol diet, 8 weeks): a grade higher than that of the control group"
"COC(=O)C(CO)NC(=O)CCc1ccc(O)c(O)c1 (centres unmarked) [BN30063, 2-[3-(3,4-dihydroxyphenyl)propionylamino]-3-hydroxy propionic acid methyl ester]",81 ± 16,1643 ± 194 mg/dL,1.39,78.28,57.75,49.41,29.8,28.97,52.31,68.06,43.25,44.8 ± 10.5%,significantly lower,no pathogenic abnormality was found,3.71 ± 0.35,not observed any abnormality,
"CC(C)CC(NC(=O)CCc1ccc(O)c(O)c1)C(=O)O (centres unmarked) [BN30064, 2-[3-(3,4-dihydroxyphenyl)propionylamino]-4-methyl pentanoic acid]",85 ± 15,1596 ± 191^b mg/dl,1.61,68.10,51.06,29.35,21.92,28.49,73.07,75.71,40.78,31.2 ± 11.6^b %,significantly lower,no pathogenic abnormality was found,3.70 ± 0.10,not observed any abnormality,HDL compared to the control group [1]: significantly increased value; Total cholesterol compared to the control group [1]: significantly low
"O=C(O)CC(NC(=O)CCc1ccc(O)c(O)c1)C(=O)O (centres unmarked) [BN30067, 2-[3-(3,4-dihydroxyphenyl)propionylamino]-succinic acid]",81 ± 14,1710 ± 251 mg/dL,1.96,42.70,40.43,63.87,27.82,23.81,37.37,69.99,34.62,43.0 ± 13.9^b %,significantly lower,no pathogenic abnormality was found,3.82 ± 0.8,not observed any abnormality,

# Reference: patent US7223793B2, “Phenolic acid derivatives and composition for preventing or treating blood lipid level-related diseases comprising the same” (Bionutrigen Co., Ltd., priority 2001, dated 2007)
